The data set is described as follows: Solubility of the liquefied gas in water. The data set is classed as physicochemical. Particulars: at 20° C. The method, then:
In the present invention, the liquefied gas to be blended is characterized by being a poorly water-soluble liquefied gas having solubility in water at 20° C. of less than 10 wt %, preferably less than 5 wt %. When the solubility of the liquefied gas in water is more than 10 wt %, the liquefied gas is hardly emulsified with the concentrate and emulsification stability is apt to be lowered, and therefore, a uniform composition tends to be hardly sprayed. In addition, in the case of blending a gas mixture as the liquefied gas, it is enough for the gas mixture to have properties corresponding to those of a poorly water-soluble liquefied gas.

Bounds are passed on as bounds.

For `COC` [dimethyl ether (*17), dimethyl ether], the solubility in water came to 33 wt %. Turning to `F/C=C/C(F)(F)F` [trans-1,3,3,3-tetrafluoroprop-1-ene], the solubility in water is listed as not above 1 wt %.

Source of the values: patent US20130164226A1, “FOAMABLE AEROSOL COMPOSITION” (DAIZO CORPORATION, priority 2010, published 2013).
